Data as given in patent US9242981B2, “Fused pyrazole derivatives as novel ERK inhibitors” (Merck Sharp & Dohme Corp., priority 2010, dated 2016).
pIC50: −log10 of the molar value.

Target: Mouse ERK2 protein (Mus musculus (Mouse), UniProt P63085)
Test: Coupled MEK1/ERK2 IMAP assay or Active ERK2 IMAP assay
Type: biochemical
Settings: Table 1, class symbols, 30 μM ATP

Sequence of Mouse ERK2 protein (P63085 whole entry): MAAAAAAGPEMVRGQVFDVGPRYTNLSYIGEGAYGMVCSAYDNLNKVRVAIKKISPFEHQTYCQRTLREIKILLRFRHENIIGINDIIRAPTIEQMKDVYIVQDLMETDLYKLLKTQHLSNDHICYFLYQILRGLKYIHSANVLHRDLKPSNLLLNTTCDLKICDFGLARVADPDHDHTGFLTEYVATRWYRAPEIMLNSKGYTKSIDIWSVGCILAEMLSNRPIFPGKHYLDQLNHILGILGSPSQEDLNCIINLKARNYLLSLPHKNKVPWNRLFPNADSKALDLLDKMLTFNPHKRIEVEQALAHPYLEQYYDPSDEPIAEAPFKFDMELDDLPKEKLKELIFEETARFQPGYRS

Structure (SMILES): COc1cccc(F)c1CN1[C@H]2CC[C@H](NC(=O)N3CCc4[nH]nc(-c5ccnc(C)c5)c4C3)[C@@H]1CC2 [Compound 160, N-[endo-8-[(2-fluoro-6-methoxyphenyl)methyl]-8-azabicyclo[3.2.1]oct-2-yl]-1,4,6,7-tetrahydro-3-(2-methyl-4-pyridinyl)-5H-pyrazolo[4,3-c]pyridine-5-carboxamide]
- pIC50: 6.00 to 7.00

Structure (SMILES): COc1cccc(F)c1CN1[C@H]2CC[C@@H](NC(=O)N3CCc4[nH]nc(-c5ccnc(C)c5)c4C3)[C@@H]1CC2 [Compound 162, N-[exo-8-[(2-fluoro-6-methoxyphenyl)methyl]-8-azabicyclo[3.2.1]oct-2-yl]-1,4,6,7-tetrahydro-3-(2-methyl-4-pyridinyl)-5H-pyrazolo[4,3-c]pyridine-5-carboxamide]
- pIC50: 7.00 to 7.68

Structure (SMILES): Cc1cc(-c2n[nH]c3c2CN(C(=O)N[C@H]2CC[C@H]4CC[C@@H]2N4Cc2c(F)cccc2F)CC3)ccn1 [Compound 164, N-[endo-8-[(2,6-difluorophenyl)methyl]-8-azabicyclo[3.2.1]oct-2-yl]-1,4,6,7-tetrahydro-3-(2-methyl-4-pyridinyl)-5H-pyrazolo[4,3-c]pyridine-5-carboxamide]
- pIC50: 6.00 to 7.00

Structure (SMILES): Cc1cc(-c2n[nH]c3c2CN(C(=O)N[C@H]2CC[C@H]4CC[C@@H]2N4Cc2ccccc2F)CC3)ccn1 [Compound 166, N-[endo-8-[(2-fluorophenyl)methyl]-8-azabicyclo[3.2.1]oct-2-yl]-1,4,6,7-tetrahydro-3-(2-methyl-4-pyridinyl)-5H-pyrazolo[4,3-c]pyridine-5-carboxamide]
- pIC50: 6.00 to 7.00

Structure (SMILES): Cc1cc(-c2n[nH]c3c2CN(C(=O)N[C@@H]2CC[C@H]4CC[C@@H]2N4Cc2ccccc2F)CC3)ccn1 [Compound 168, N-[exo-8-[(2-fluorophenyl)methyl]-8-azabicyclo[3.2.1]oct-2-yl]-1,4,6,7-tetrahydro-3-(2-methyl-4-pyridinyl)-5H-pyrazolo[4,3-c]pyridine-5-carboxamide]
- pIC50: > 7.70

Structure (SMILES): COc1cccc(F)c1CN1CCC[C@@H](NC(=O)N2CCc3[nH]nc(-c4ccc5nc(C)sc5c4)c3C2)C1 [Compound 170, N-[1-[(2-fluoro-6-methoxyphenyl)methyl]-3(R)-piperidinyl]-1,4,6,7-tetrahydro-3-(2-methyl-6-benzothiazolyl)-5H-pyrazolo[4,3-c]pyridine-5-carboxamide]
- pIC50: > 7.70

Structure (SMILES): Cc1nc2ccc(-c3n[nH]c4c3CN(C(=O)N[C@@H]3CCCN(Cc5c(F)cccc5F)C3)CC4)cc2s1 [Compound 172, N-[1-[(2,6-difluorophenyl)methyl]-3(R)-piperidinyl]-1,4,6,7-tetrahydro-3-(2-methyl-6-benzothiazolyl)-5H-pyrazolo[4,3-c]pyridine-5-carboxamide]
- pIC50: > 7.70

Structure (SMILES): O=C(N[C@@H]1CCCN(CCc2ccccc2)C1)N1CCc2[nH]nc(-c3ccncc3)c2C1 [Compound 173, 1,4,6,7-tetrahydro-N-[1-(2-phenylethyl)-3(R)-piperidinyl]-3-(4-pyridinyl)-5H-pyrazolo[4,3-c]pyridine-5-carboxamide]
- pIC50: 7.00 to 7.68

Structure (SMILES): Cc1nc2ccc(-c3n[nH]c4c3CN(C(=O)N[C@@H]3CCCN(Cc5csc6ccccc56)C3)CC4)cc2s1 [Compound 174, N-[1-(benzo[b]thien-3-ylmethyl)-3(R)-piperidinyl]-1,4,6,7-tetrahydro-3-(2-methyl-6-benzothiazolyl)-5H-pyrazolo[4,3-c]pyridine-5-carboxamide]
- pIC50: > 7.70

Structure (SMILES): Cc1nc2ccc(-c3n[nH]c4c3CN(C(=O)N[C@@H]3CCCN(Cc5coc6ccccc56)C3)CC4)cc2s1 [Compound 176, N-[1-(3-benzofuranylmethyl)-3(R)-piperidinyl]-1,4,6,7-tetrahydro-3-(2-methyl-6-benzothiazolyl)-5H-pyrazolo[4,3-c]pyridine-5-carboxamide]
- pIC50: > 7.70

Structure (SMILES): O=C(N[C@@H]1CCCN(Cc2ccccc2)C1)N1CCc2[nH]nc(-c3ccc4c(c3)CCO4)c2C1 [Compound 177, 3-(2,3-dihydro-5-benzofuranyl)-1,4,6,7-tetrahydro-N-[1-(phenylmethyl)-3(R)-piperidinyl]-5H-pyrazolo[4,3-c]pyridine-5-carboxamide]
- pIC50: > 7.70

Structure (SMILES): Cc1cc(-c2n[nH]c3c2CN(C(=O)N[C@@H]2CC[C@H]4CC[C@@H]2N4Cc2c(F)cccc2F)CC3)ccn1 [Compound 178, N-[exo-8-[(2,6-difluorophenyl)methyl]-8-azabicyclo[3.2.1]oct-2-yl]-1,4,6,7-tetrahydro-3-(2-methyl-4-pyridinyl)-5H-pyrazolo[4,3-c]pyridine-5-carboxamide]
- pIC50: > 7.70

Structure (SMILES): O=C(N[C@@H]1CCCN(Cc2c(F)cccc2F)C1)N1CCc2[nH]nc(-c3ccc4c(c3)CCO4)c2C1 [Compound 179, N[1-[(2,6-difluorophenyl)methyl]-3(R)-piperidinyl]-3-(2,3-dihydro-5-benzofuranyl)-1,4,6,7-tetrahydro-5H-pyrazolo[4,3-c]pyridine-5-carboxamide]
- pIC50: 7.00 to 7.68

Structure (SMILES): Cc1cc(-c2n[nH]c3c2CN(C(=O)N[C@H]2CN(Cc4c(F)cccc4F)CC(F)(F)C2)CC3)ccn1 [Compound 180, N-[1-[(2,6-difluorophenyl)methyl]-5,5-difluoro-3(R)-piperidinyl]-1,4,6,7-tetrahydro-3-(2-methyl-4-pyridinyl)-5H-pyrazolo[4,3-c]pyridine-5-carboxamide]
- pIC50: 7.00 to 7.68

Structure (SMILES): COc1cccc(F)c1CN1CCC[C@@H](NC(=O)N2CCc3[nH]nc(-c4ccc5c(c4)CCO5)c3C2)C1 [Compound 181, (R)-3-(2,3-dihydrobenzofuran-5-yl)-N-(1-(2-fluoro-6-methoxybenzyl)piperidin-3-yl)-6,7-dihydro-1H-pyrazolo[4,3-c]pyridine-5(4H)-carboxamide]
- pIC50: > 7.70

Structure (SMILES): O=C(N[C@@H]1CCCN(Cc2csc3ccccc23)C1)N1CCc2[nH]nc(-c3ccc4c(c3)CCO4)c2C1 [Compound 183, N-[1-(benzo[b]thien-3-ylmethyl)-3(R)-piperidinyl]-3-(2,3-dihydro-5-benzofuranyl)-1,4,6,7-tetrahydro-5H-pyrazolo[4,3-c]pyridine-5-carboxamide]
- pIC50: > 7.70

Structure (SMILES): Cc1nc2cc(-c3n[nH]c4c3CN(C(=O)N[C@@H]3CCCN(Cc5c(C)cccc5C)C3)CC4)ccc2s1 [Compound 184, N-[1-[(2,6-dimethylphenyl)methyl]-3(R)-piperidinyl]-1,4,6,7-tetrahydro-3-(2-methyl-5-benzothiazolyl)-5H-pyrazolo[4,3-c]pyridine-5-carboxamide]
- pIC50: 7.00 to 7.68

Structure (SMILES): Cc1nc2ccc(-c3n[nH]c4c3CN(C(=O)N[C@@H]3CCCN(Cc5ccccc5)C3)CC4)cc2o1 [Compound 185, 1,4,6,7-tetrahydro-3-(2-methyl-6-benzoxazolyl)-N-[1-(phenylmethyl)-3(R)-piperidinyl]-5H-pyrazolo[4,3-c]pyridine-5-carboxamide]
- pIC50: 7.00 to 7.68

Structure (SMILES): COc1cccc(F)c1CN1CCC[C@@H](NC(=O)N2CCc3[nH]nc(-c4ccc5sc(C)nc5c4)c3C2)C1 [Compound 186, (R)-N-(1-(2-fluoro-6-methoxybenzyl)piperidin-3-yl)-3-(2-methylbenzo[d]thiazol-5-yl)-6,7-dihydro-1H-pyrazolo[4,3-c]pyridine-5(4H)-carboxamide]
- pIC50: 7.00 to 7.68

Structure (SMILES): Cc1nc2ccc(-c3n[nH]c4c3CN(C(=O)N[C@@H]3CCCN(Cc5c(F)cccc5F)C3)CC4)cc2o1 [Compound 187, N-[1-[(2,6-difluorophenyl)methyl]-3(R)-piperidinyl]-1,4,6,7-tetrahydro-3-(2-methyl-6-benzoxazolyl)-5H-pyrazolo[4,3-c]pyridine-5-carboxamide]
- pIC50: 6.00 to 7.00

Structure (SMILES): Cc1nc2cc(-c3n[nH]c4c3CN(C(=O)N[C@@H]3CCCN(Cc5c(F)cccc5F)C3)CC4)ccc2s1 [Compound 188, N-[1-[(2,6-difluorophenyl)methyl]-3(R)-piperidinyl]-1,4,6,7-tetrahydro-3-(2-methyl-5-benzothiazolyl)-5H-pyrazolo[4,3-c]pyridine-5-carboxamide]
- pIC50: 6.00 to 7.00

Structure (SMILES): Cc1nc2ccc(-c3n[nH]c4c3CN(C(=O)N[C@@H]3CCCN(Cc5csc6ccccc56)C3)CC4)cc2o1 [Compound 189, N-[1-(benzo[b]thien-3-ylmethyl)-3(R)-piperidinyl]-1,4,6,7-tetrahydro-3-(2-methyl-6-benzoxazolyl)-5H-pyrazolo[4,3-c]pyridine-5-carboxamide]
- pIC50: > 7.70

Structure (SMILES): Cc1nc2cc(-c3n[nH]c4c3CN(C(=O)N[C@@H]3CCCN(Cc5ccccc5)C3)CC4)ccc2s1 [Compound 190, 1,4,6,7-tetrahydro-3-(2-methyl-5-benzothiazolyl)-N-[1-(phenylmethyl)-3(R)-piperidinyl]-5H-pyrazolo[4,3-c]pyridine-5-carboxamide]
- pIC50: 6.00 to 7.00

Structure (SMILES): Cc1nc2ccc(-c3n[nH]c4c3CN(C(=O)N[C@@H]3CCCN(Cc5ccccc5F)C3)CC4)cc2o1 [Compound 191, N-[1-[(2-fluorophenyl)-methyl]-3(R)-piperidinyl]-1,4,6,7-tetrahydro-3-(2-methyl-6-benzoxazolyl)-5H-pyrazolo[4,3-c]pyridine-5-carboxamide]
- pIC50: > 7.70
